Measured values taken from patent publication US20160297830A1, “NOVEL COMPOUNDS USEFUL FOR THE TREATMENT OF BACTERIAL INFECTIOUS DISEASES” (GALAPAGOS NV, priority 2013, published 2016).
Values after ≈ are worked out from the molar mass of the structure shown.

Test system: H. influenza Hi4 efflux pump KO
Assay: Antibacterial activity assay (MIC), H. influenza Hi4
Type: cell-based

Row | Compound | MIC [µg/mL] | MIC Hi4 efflux pump KO [µg/mL]
1 | COC[C@@H](O)[C@H]1OC(=O)[C@H](COC)[C@H]2C=C[C@H]3[C@H]4O[C@]2(/C(C)=C/[C@H]1C)[C@@H]3[C@H](O)[C@@H](C)[C@H]4OC(=O)c1ccc[nH]1 [Compound 3, 8-O-1H-pyrrole-2′-carbonylbaleomycin] | 1 (≈ 1.83 µM) | –
2 | COCC(=NO)[C@H]1OC(=O)[C@H](COC)[C@H]2C=C[C@H]3[C@H]4O[C@]2(/C(C)=C/[C@H]1C)[C@@H]3[C@H](O)[C@@H](COC)[C@H]4OC(=O)c1cc(F)c[nH]1 [Compound 40, 18-Deoxy-18-oximino-8-O-4-Fluoro-1H-pyrrole-2′-carbonylbranimycin] | 2 (≈ 3.3 µM) | –
3 | COC[C@@H]1[C@@H](O)[C@@H]2[C@H]3CC[C@@H]4[C@@H](COC)C(=O)O[C@H]([C@H](O)COC)[C@H](C)/C=C(\C)[C@@]24O[C@H]3[C@@H]1OC(=O)c1ccc[nH]1 [Compound 16, 4,5-Dihydro-8-O-1H-pyrrole-2′-carbonylbranimycin] | 16 (≈ 27.7 µM) | –
4 | COCC(=O)[C@H]1OC(=O)[C@H](COC)[C@H]2C=C[C@H]3[C@H]4O[C@]2(/C(C)=C/[C@H]1C)[C@@H]3[C@H](O)[C@@H](COC)[C@H]4OC(=O)c1ccc[nH]1 [Compound 20, 18-Deoxy-18-oxo-8-O-1H-pyrrole-2′-carbonylbranimycin] | 32 (≈ 55.8 µM) | –
5 | COCC[C@H]1OC(=O)[C@H](COC)[C@H]2C=C[C@H]3[C@H]4O[C@]2(/C(C)=C/[C@H]1C)[C@@H]3[C@H](O)[C@@H](COC)[C@H]4OC(=O)c1ccc[nH]1 [Compound 4, 17-Deoxy-8-O-1H-pyrrole-2′-carbonylbranimycin] | 16 (≈ 28.6 µM) | –
6 | COCC(=NO)[C@H]1OC(=O)[C@H](COC)[C@H]2C=C[C@H]3[C@H]4O[C@]2(/C(C)=C/[C@H]1C)[C@@H]3[C@H](O)[C@@H](COC)[C@H]4OC(=O)c1ccc[nH]1 [Compound 25, 18-Deoxy-18-oximino-8-O-1H-pyrrole-2′-carbonylbranimycin] | 1 (≈ 1.7 µM) | –
7 | COC[C@@H]1[C@@H](O)[C@@H]2[C@H]3C=C[C@@H]4[C@@H](COC)C(=O)O[C@H]([C@H](O)COC)[C@H](C)/C=C(\C)[C@@]24O[C@H]3[C@@H]1OC(=O)c1cc(F)c[nH]1 [Compound 19, 8-O-4-Fluoro-1H-pyrrole-2′-carbonylbranimycin] | 0.25 (≈ 0.421 µM) | –
8 | 8-O-5-Bromo-4-Chloro-1H-pyrrole-2′-carbonylbranimycin [Compound 33] | – | 16
9 | COC[C@@H]1[C@@H](O)[C@@H]2[C@H]3C=C[C@@H]4C[C@H](O)C(=O)O[C@H]([C@H](O)COC)[C@H](C)/C=C(\C)[C@@]24O[C@H]3[C@@H]1OC(=O)c1ccc[nH]1 [Nargenicin B1, reference compound] | 8 (≈ 14.2 µM) | –
10 | COC/C(=N\OC)[C@H]1OC(=O)[C@H](COC)[C@H]2C=C[C@H]3[C@H]4O[C@]2(/C(C)=C/[C@H]1C)[C@@H]3[C@H](O)[C@@H](COC)[C@H]4OC(=O)c1ccc[nH]1 [Compound 27, 18-Deoxy-18-methoximino-8-O-1H-pyrrole-2′-carbonylbranimycin] | 8 (≈ 13.3 µM) | –
